Key:
MCF7 = experiment: Cytotoxicity against human MCF7 cells assessed as cell viability after 72 hrs by MTT assay; format: functional, cell-based; conditions: MCF7, 72 h
[1] = Cytotoxicity against human Hs578T cells assessed as cell viability after 72 hrs by MTT assay; format: functional, cell-based; conditions: Hs-578T
MX1 = experiment: Cytotoxicity against human MX1 cells assessed as cell viability after 72 hrs by MTT assay; format: functional, cell-based; conditions: MX1, 72 h
SF-295 = experiment: Cytotoxicity against human SF295 cells assessed as cell viability after 72 hrs by MTT assay; format: functional, cell-based; conditions: SF-295, 72 h
MDA-MB-435 = experiment: Cytotoxicity against human MDA-MB-435 cells assessed as cell viability after 72 hrs by MTT assay; format: functional, cell-based; conditions: MDA-MB-435, 72 h
V79 = experiment: Cytotoxicity against chinese hamster V79 cells assessed as cell viability after 72 hrs by MTT assay; format: cell-based; conditions: Cricetulus griseus, V79, 72 h
PBMC = experiment: Cytotoxicity against human PBMC assessed as cell viability after 72 hrs by MTT assay; format: cell-based
HL-60 = experiment: Cytotoxicity against human HL60 cells assessed as cell viability after 72 hrs by MTT assay; format: functional, cell-based; conditions: HL-60, 72 h
L929 = experiment: Cytotoxicity against mouse L929 cells assessed as cell viability after 72 hrs by MTT assay; format: ADME, cell-based; conditions: L929, 72 h
HCT-116 = experiment: Cytotoxicity against human HCT116 cells assessed as cell viability after 72 hrs by MTT assay; format: functional, cell-based; conditions: HCT-116, 72 h
DU-145 = experiment: Cytotoxicity against human DU145 cells assessed as cell viability after 72 hrs by MTT assay; format: functional, cell-based; conditions: DU-145, 72 h
[2] = Cytotoxicity against human HCT8 cells assessed as cell viability after 72 hrs by MTT assay; format: functional, cell-based; conditions: HCT-8, 72 h
PC-3 = experiment: Cytotoxicity against human PC3 cells assessed as cell viability after 72 hrs by MTT assay; format: functional, cell-based; conditions: PC-3, 72 h
OVCAR-8 = experiment: Cytotoxicity against human OVCAR8 cells assessed as cell viability after 72 hrs by MTT assay; format: functional, cell-based; conditions: OVCAR-8, 72 h

Structure (SMILES)	IC50 (MCF7)	IC50 [1]	IC50 (MX1)	IC50 (SF-295)	IC50 (MDA-MB-435)	IC50 (V79)	IC50 (PBMC)	IC50 (HL-60)	IC50 (L929)	IC50 (HCT-116)	IC50 (DU-145)	IC50 [2]	IC50 (PC-3)	IC50 (OVCAR-8)
O=C1C(Br)=C(NCc2cn(-c3cccc([N+](=O)[O-])c3)nn2)C(=O)c2ccccc21	> 11 µM	> 11 µM	> 11 µM	> 11 µM	> 11 µM	> 11 µM	> 11 µM	> 11 µM	> 11 µM	> 11 µM	> 11 µM	> 11 µM	> 11 µM	> 11 µM
CC1(C)CC(Nc2cccc(F)c2)C2=C(O1)C(=O)c1ccccc1C2=O (configuration not stated)	6.92 µM	7.68 µM	7.11 µM	–	–	2.68 µM	4.44 µM	–	3.24 µM	–	8.76 µM	–	7.77 µM	–
CC1(C)CC(Nc2cccc([N+](=O)[O-])c2)C2=C(O1)C(=O)c1ccccc1C2=O (configuration not stated)	–	–	–	1.51 µM	1.45 µM	3.86 µM	4.84 µM	1.51 µM	4.62 µM	8.48 µM	–	6.42 µM	–	–
CC1(C)CC(Nc2cccc(Br)c2)C2=C(O1)C(=O)c1ccccc1C2=O (configuration not stated)	9.99 µM	11.5 µM	8.66 µM	8.76 µM	9.6 µM	3.2 µM	5 µM	7.66 µM	3.81 µM	> 12 µM	10.5 µM	> 12 µM	9.87 µM	10.4 µM
CC1(C)CC(Sc2ccccc2)C2=C(O1)C(=O)c1ccccc1C2=O (configuration not stated)	13.3 µM	4.61 µM	11.8 µM	> 14 µM	–	> 14 µM	> 14 µM	2.91 µM	> 14 µM	> 14 µM	> 14 µM	> 14 µM	> 14 µM	> 14 µM
CC1(C)OC2=C(C(=O)c3ccccc3C2=O)C1Sc1ccccc1 (configuration not stated)	7.43 µM	3.26 µM	6.45 µM	9.15 µM	–	> 14.8 µM	> 14.8 µM	0.47 µM	13.8 µM	3.29 µM	6.98 µM	2.25 µM	6.09 µM	6.09 µM
CC(=O)OC[C@H]1OC(n2cc(CNC3=C(Br)C(=O)c4ccccc4C3=O)nn2)[C@H](OC(C)=O)[C@@H](OC(C)=O)[C@@H]1OC(C)=O (some centres not stated)	2.91 µM	3.68 µM	3.59 µM	2.83 µM	2.67 µM	3.59 µM	4.76 µM	1.19 µM	3.66 µM	4.39 µM	4.07 µM	2.2 µM	> 7 µM	2.8 µM
O=C1C=C(NCc2cn(C3=CC(=O)c4ccccc4C3=O)nn2)C(=O)c2ccccc21	3.67 µM	5.68 µM	3.7 µM	3.82 µM	3.09 µM	6.21 µM	6.77 µM	0.8 µM	5.21 µM	> 12 µM	5.34 µM	2.7 µM	5.02 µM	2.86 µM
O=C1C=C(n2cc(CNC3=C(Cl)C(=O)c4ccccc4C3=O)nn2)C(=O)c2ccccc21	7.76 µM	4.68 µM	4.02 µM	5.55 µM	3.33 µM	7.1 µM	10.2 µM	3.42 µM	6.83 µM	6.65 µM	4.92 µM	7.08 µM	5.42 µM	6.02 µM
O=C1C=C(n2cc(CNC3=C(Br)C(=O)c4ccccc4C3=O)nn2)C(=O)c2ccccc21	> 10 µM	> 10 µM	> 10 µM	> 10 µM	> 10 µM	> 10 µM	> 10 µM	> 10 µM	> 10 µM	> 10 µM	> 10 µM	> 10 µM	> 10 µM	> 10 µM
CC1(C)CC(Nc2ccc([N+](=O)[O-])cc2)C2=C(O1)C(=O)c1ccccc1C2=O (configuration not stated)	7.16 µM	5.95 µM	5.52 µM	5.95 µM	5.42 µM	1.61 µM	2.01 µM	4.26 µM	1.37 µM	5.66 µM	6.13 µM	4.97 µM	5.79 µM	6.66 µM
CC1(C)CC(Nc2ccc(Br)cc2)C2=C(O1)C(=O)c1ccccc1C2=O (configuration not stated)	4.97 µM	6.4 µM	6.33 µM	6.38 µM	5.24 µM	2.55 µM	2.89 µM	4.73 µM	2.38 µM	5.84 µM	6.72 µM	5.31 µM	5.41 µM	5.53 µM
CC1(C)CC(Nc2ccc(I)cc2)C2=C(O1)C(=O)c1ccccc1C2=O (configuration not stated)	7.53 µM	9.17 µM	10.7 µM	9.19 µM	9.01 µM	2.55 µM	3.22 µM	6.88 µM	2.31 µM	> 10 µM	10.8 µM	> 10 µM	9.06 µM	> 10 µM
CC1(C)CC(Nc2ccc(Cl)cc2)C2=C(O1)C(=O)c1ccccc1C2=O (configuration not stated)	0.98 µM	0.6 µM	0.76 µM	0.71 µM	1 µM	1.5 µM	0.52 µM	0.98 µM	1.85 µM	0.54 µM	1.17 µM	0.65 µM	1 µM	1.47 µM
COc1ccc(NC2CC(C)(C)OC3=C2C(=O)c2ccccc2C3=O)cc1 (configuration not stated)	1.02 µM	0.69 µM	0.52 µM	0.74 µM	0.58 µM	0.96 µM	1.76 µM	0.19 µM	0.74 µM	0.33 µM	0.88 µM	0.47 µM	0.55 µM	0.44 µM
COc1cccc2c1C(=O)c1c(O)c3c(c(O)c1C2=O)C[C@@](O)(C(=O)CO)C[C@@H]3O[C@H]1C[C@H](N)[C@H](O)[C@H](C)O1 [DOXORUBICIN]	–	0.37 µM	0.5 µM	–	–	0.24 µM	–	–	–	–	0.53 µM	0.13 µM	–	0.35 µM

Reference: ChEMBL document CHEMBL3112408, “1,2,3-triazole-, arylamino- and thio-substituted 1,4-naphthoquinones: potent antitumor activity, electrochemical aspects, and bioisosteric replacement of C-ring-modified lapachones” (Bioorg Med Chem, 2014)
